Experimental data published in ChEMBL document CHEMBL1153291, “Synthesis and structure-activity relationships of novel benzofuran farnesyltransferase inhibitors” (Bioorg Med Chem Lett, 2009).

How the values were obtained:
[1] = Half life in mouse at 25 mg/kg, iv; format: ADME, organism-based; parameters: dose 25 mg/kg, route intravenous; settings: in vivo
QG-56 [2] = test: Antiproliferative activity against human QG56 cells; format: functional, cell-based
[3] = AUC (0 to 24 hrs) in mouse at 25 mg/kg, iv; format: ADME, organism-based; parameters: time < 24 hr, dose 25 mg/kg, route intravenous; settings: plasma
[4] = target: Protein farnesyltransferase (Homo sapiens, UniProt P49354+P49356); test: Inhibition of human FTase; format: protein-complex assay
[5] = Cmax in mouse at 100 mg/kg, po; format: ADME, organism-based; parameters: dose 100 mg/kg, route oral; settings: in vivo
[6] = Oral bioavailability in mouse at 100 mg/kg; format: ADME, organism-based; settings: in vivo
QG-56 [7] = test: Toxicity in mouse xenografted with human QG56 cells assessed as reduction of body weight loss at 200 mg/kg, po administered 5 times a week for 2 weeks; format: functional, organism-based; parameters: dose 200 mg/kg
[8] = Cmax in mouse at 25 mg/kg, po; format: ADME, organism-based; parameters: dose 25 mg/kg, route oral; settings: in vivo
[9] = AUC (0 to 24 hrs) in mouse at 100 mg/kg, po; format: ADME, organism-based; parameters: time < 24 hr, dose 100 mg/kg, route oral; settings: plasma
[10] = Half life in mouse at 100 mg/kg, po; format: ADME, organism-based; parameters: dose 100 mg/kg, route oral; settings: in vivo
[11] = AUC (0 to 24 hrs) in mouse at 25 mg/kg, po; format: ADME, organism-based; parameters: time < 24 hr, dose 25 mg/kg, route oral; settings: plasma
[12] = Apparent oral clearance in mouse at 25 mg/kg, po; format: ADME, organism-based; parameters: dose 25 mg/kg, route oral; settings: in vivo
QG-56 [13] = test: Antitumor activity against human QG56 cells xenografted in mouse assessed as reduction of tumor volume at 200 mg/kg, po administered 5 times a week for 2 weeks; format: functional, organism-based; parameters: dose 200 mg/kg
[14] = Half life in mouse at 25 mg/kg, po; format: ADME, organism-based; parameters: dose 25 mg/kg, route oral; settings: in vivo
[15] = Apparent oral clearance in mouse at 100 mg/kg, po; format: ADME, organism-based; parameters: dose 100 mg/kg, route oral; settings: in vivo
[16] = Oral bioavailability in mouse at 25 mg/kg; format: ADME, organism-based; settings: in vivo

SMILES	IC50 [4]	IC50 (QG-56 [2])	other results
Cn1cncc1[C@@](N)(c1ccc(C#N)cc1)c1cc2cc(C#N)cc(-c3cccc(F)c3)c2o1	1.1 nM	2 nM	half-life [1]: 1.2 h; AUC(0-t) at 24 h [3]: 15400 ng·h/mL; Cmax [5]: 5010 ng/mL; bioavailability [6]: 51%; Activity (QG-56 [7]): Not toxic; Cmax [8]: 1570 ng/mL; AUC(0-t) at 24 h [9]: 31300 ng·h/mL; half-life [10]: 12.3 h; AUC(0-t) at 24 h [11]: 10200 ng·h/mL; CL/F [12]: 40.8 mL/min/kg; Activity (QG-56 [13]): Non-toxic; half-life [14]: 2.4 h; CL/F [15]: 41 mL/min/kg; bioavailability [16]: 66%
COc1cccc(-c2cc(C#N)cc3cc([C@](N)(c4ccc(C#N)cc4)c4cncn4C)oc23)c1	1.2 nM	1.5 nM	
Cn1cncc1[C@@](N)(c1ccc(C#N)cc1)c1cc2cc(C#N)cc(-c3cccc(C#N)c3)c2o1	0.7 nM	2 nM	
Cn1cncc1C(O)(c1ccc(C#N)cc1)c1cc2cc([N+](=O)[O-])cc(-c3ccc(C#N)cc3)c2o1 (racemic)	3.4 nM	32.6 nM	
Cn1cncc1C(O)(c1ccc(C(=O)OC(C)(C)C)cc1)c1cc2cc([N+](=O)[O-])cc(-c3ccccc3)c2o1 (racemic)	> 1000 nM	6250 nM	
COC(=O)c1cc(-c2cccc(OC)c2)c2oc(C(O)(c3ccc(C#N)cc3)c3cncn3C)cc2c1 (racemic)	3.2 nM	36.3 nM	
Cn1cncc1C(O)(c1ccc(C#N)cc1)c1cc2cc([N+](=O)[O-])cc(-c3cccc(C#N)c3)c2o1 (racemic)		22.9 nM	
COc1cccc(-c2cc([N+](=O)[O-])cc3cc(C(O)(c4ccc(C#N)cc4)c4cncn4C)oc23)c1 (racemic)	8.5 nM	38.8 nM	
COc1cccc(-c2cc(CN(C)C)cc3cc(C(O)(c4ccc(C#N)cc4)c4cncn4C)oc23)c1 (racemic)	11 nM	142 nM	
Cn1cncc1C(O)(c1ccc(C#N)cc1)c1cc2cc(C#N)cc(-c3ccccc3)c2o1 (racemic)	2.4 nM	14.5 nM	
COc1cccc(-c2cc(C(N)=O)cc3cc(C(O)(c4ccc(C#N)cc4)c4cncn4C)oc23)c1 (racemic)	0.9 nM	8.2 nM	
COc1cccc(-c2cc(C(=O)NN3CCOCC3)cc3cc(C(O)(c4ccc(C#N)cc4)c4cncn4C)oc23)c1 (racemic)	2.6 nM		
COc1ccc(-c2cc([N+](=O)[O-])cc3cc(C(O)(c4ccc(C#N)cc4)c4cncn4C)oc23)cc1 (racemic)	4 nM	36 nM	
COc1cccc(-c2cc(C=O)cc3cc(C(O)(c4ccc(C#N)cc4)c4cncn4C)oc23)c1 (racemic)	2 nM	15.2 nM	
Cn1cncc1C(O)(c1ccc(Cl)cc1)c1cc2cc(C(=O)NN3CCOCC3)cc(-c3ccccc3)c2o1 (racemic)		73.6 nM	
COc1cccc(-c2cc(CO)cc3cc(C(O)(c4ccc(C#N)cc4)c4cncn4C)oc23)c1 (racemic)	1 nM	16.8 nM	

More lines, main results first:

IC50 [4]	SMILES	IC50 (QG-56 [2])	other results
1.5 nM	Cn1cncc1[C@@](N)(c1ccc(C#N)cc1)c1cc2cc([N+](=O)[O-])cc(-c3ccccc3)c2o1	5.9 nM	
49 nM	Cn1cncc1[C@](N)(c1ccc(C#N)cc1)c1cc2cc([N+](=O)[O-])cc(-c3ccccc3)c2o1	206 nM	
0.8 nM	COc1cccc(-c2cc([N+](=O)[O-])cc3cc([C@](N)(c4ccc(C#N)cc4)c4cncn4C)oc23)c1	1.1 nM	
6.3 nM	Cn1cncc1C(O)(c1ccc(C#N)cc1)c1cc2cc([N+](=O)[O-])cc(-c3cccc(F)c3)c2o1 (racemic)	145 nM	
170 nM	Cn1cncc1C(O)(c1ccc(Cl)cc1)c1cc2cc([N+](=O)[O-])cc(-c3ccccc3)c2o1 (racemic)	1880 nM	
250 nM	COc1ccc(C(O)(c2cc3cc([N+](=O)[O-])cc(-c4ccccc4)c3o2)c2cncn2C)cc1 (racemic)	4970 nM	
3.3 nM	Cn1cncc1C(O)(c1ccc(C#N)cc1)c1cc2cc([N+](=O)[O-])cc(-c3ccccc3F)c2o1 (racemic)	89.5 nM	
11 nM	Cc1cccc(-c2cc([N+](=O)[O-])cc3cc(C(O)(c4ccc(C#N)cc4)c4cncn4C)oc23)c1 (racemic)	23.2 nM	
850 nM	Cn1cncc1C(O)(c1ccc(C(=O)O)cc1)c1cc2cc([N+](=O)[O-])cc(-c3ccccc3)c2o1 (racemic)	> 10000 nM	
6.4 nM	Cn1cncc1C(O)(c1ccc(C#N)cc1)c1cc2cc([N+](=O)[O-])cc(-c3ccccc3)c2o1 (racemic)	1480 nM	
30 nM	Cn1cncc1C(O)(c1ccc([N+](=O)[O-])cc1)c1cc2cc([N+](=O)[O-])cc(-c3ccccc3)c2o1 (racemic)	547 nM	
7.2 nM	Cn1cncc1C(O)(c1ccc(C#N)cc1)c1cc2cc([N+](=O)[O-])cc(-c3ccc(F)cc3)c2o1 (racemic)	158 nM	
360 nM	Cn1cncc1C(O)(c1ccc(Br)cc1)c1cc2cc([N+](=O)[O-])cc(-c3ccccc3)c2o1 (racemic)	1480 nM	
360 nM	Cn1cncc1C(O)(c1ccc(I)cc1)c1cc2cc([N+](=O)[O-])cc(-c3ccccc3)c2o1 (racemic)	> 10000 nM	
